# Test results taken from patent US11920139B2, “Regulated expression of antigen and/or regulated attenuation to enhance vaccine immunogenicity and/or safety” (priority 2007, dated 2024).
# Columns and labels:
# [1] = test system: Salmonella Typhi strain χ9640(pYA4088); assay: microbe, parasite or virus in culture; assay type: cell-based; conditions: for MIC: Salmonella enterica, TYPHI, read-out: Minimum inhibitory concentration
# From the text: (§1) Master seed and working seed banks of each vaccine organism in separate vials have been prepared for frozen storage in vegetable-based cryopreservative. […] Ampicillin, ciprofloxacin, ceftriaxone and trimethoprim/sulfamethoxazole are typically tested for minimum inhibitory concentrations (MICs) for Salmonella.
# [2] = test system: Salmonella Typhi strain χ9639(pYA4088); assay: microbe, parasite or virus in culture; assay type: cell-based; conditions: for MIC: Salmonella enterica, TYPHI, read-out: Minimum inhibitory concentration
# From the text: as §1
# [3] = test system: Salmonella Typhi strain χ9633(pYA4088); assay: Minimum inhibitory concentrations of antibiotics; assay type: cell-based; conditions: for MIC: Salmonella enterica, TYPHI, read-out: Minimum inhibitory concentration
# From the text: (§2) Master seed and working seed banks of each vaccine organism in separate vials have been prepared for frozen storage in vegetable-based cryopreservative. […] Antibiotic sensitivity testing has confirmed that these strains are sensitive to ciprofloxacin, ampicillin, ceftriaxone, trimethoprim/sulfamethoxazole (Table 15). Ampicillin, ciprofloxacin, ceftriaxone and trimethoprim/sulfamethoxazole are typically tested for minimum inhibitory concentrations (MICs) for Salmonella.
# [4] = test system: the three vaccine strains (RASV-Sp); assay: Antibiotic sensitivity testing of the vaccine strains; assay type: cell-based, Salmonella Typhi
# From the text: as §2
Compound,MIC [1],MIC [2],MIC [3],antibiotic sensitivity [4],Minimum inhibitory concentration [1],Minimum inhibitory concentration [2],Minimum inhibitory concentration [3]
CO/N=C(\C(=O)N[C@@H]1C(=O)N2C(C(=O)O)=C(CSc3nc(=O)c(=O)[nH]n3C)CS[C@H]12)c1csc(N)n1 [ceftriaxone],< 1 µg/mL,< 1 µg/mL,< 0.25 µg/mL,sensitive,–,–,–
CC1(C)S[C@@H]2[C@H](NC(=O)[C@H](N)c3ccccc3)C(=O)N2[C@H]1C(=O)O [ampicillin],< 2 µg/mL,< 2 µg/mL,< 2 µg/mL,sensitive,–,–,–
O=C(O)c1cn(C2CC2)c2cc(N3CCNCC3)c(F)cc2c1=O [ciprofloxacin],< 0.25 µg/mL,< 0.25 µg/mL,< 0.25 µg/mL,sensitive,–,–,–
trimethroprim-sulfamethoxazole,–,–,–,sensitive,<20 µg/mL,<20 µg/mL,<20 µg/mL
